Assay results as given in ChEMBL document CHEMBL1201862, “PubChem BioAssay data set” (2004).
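Method: 48-hour compound exposure of cells in 96-well plates, five concentrations, linear interpolation of endpoints. GI50 is the concentration that inhibits growth by half.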 Active and inactive are the calls of the source. No stated cut-off is given here; in the data, active = GI50 up to about 1.1 µM and inactive = higher.

Assays:
Experiment in all cases: inhibition of tumour cell growth, NCI panel, 48 h
786-0 = system: 786-0
ACHN = system: ACHN
HOP-62 = system: HOP-62
K562 = system: K562
KM-20L2 = system: KM-20L2
LOX IMVI = system: LOX IMVI
LXFL 529 = system: LXFL 529
OVCAR-4 = system: OVCAR-4
OVCAR-8 = system: OVCAR-8
RXF 393 = system: RXF 393
SNB-19 = system: SNB-19
SW-620 = system: SW-620
TK-10 = system: TK-10
U-251 = system: U-251
NCI-H23 = system: NCI-H23
NCI-H522 = system: NCI-H522
NCI/ADR-RES = system: NCI/ADR-RES

Measured: GI50

CC(NC1CCCC[C@@H]1O)c1ccccc1 (some centres undefined)
inactive: 786-0 > 100 µM | ACHN > 100 µM | HOP-62 > 100 µM | K562 > 100 µM | KM-20L2 > 100 µM | LOX IMVI > 100 µM | LXFL 529 > 100 µM | OVCAR-4 > 100 µM | OVCAR-8 > 100 µM | RXF 393 > 100 µM | SNB-19 > 100 µM | SW-620 > 100 µM | TK-10 > 100 µM | U-251 > 100 µM

O=C(O)COc1ccccc1C(=O)Nc1ccccc1
inactive: 786-0 > 100 µM | ACHN > 100 µM | HOP-62 > 100 µM | K562 > 100 µM | KM-20L2 > 100 µM | LOX IMVI > 100 µM | LXFL 529 > 100 µM | NCI-H23 > 100 µM | NCI-H522 > 100 µM | OVCAR-4 > 100 µM | OVCAR-8 > 100 µM | SNB-19 > 100 µM | SW-620 > 100 µM | TK-10 > 100 µM | U-251 > 100 µM

C#Cc1c(C)c(/C=C/C(C)=C/C=C/C(C)=C/C(=O)OC)n(C)c1C
inactive: 786-0 > 100 µM | ACHN > 100 µM | HOP-62 > 100 µM | K562 > 100 µM | KM-20L2 > 100 µM | LOX IMVI > 100 µM | LXFL 529 > 100 µM | NCI-H23 > 100 µM | NCI-H522 > 100 µM | OVCAR-4 > 100 µM | OVCAR-8 > 100 µM | SNB-19 > 100 µM | SW-620 > 100 µM | TK-10 > 100 µM | U-251 > 100 µM

COC1/C(=C\c2ccccc2I)c2ccccc2N1C(C)=O (centres undefined)
inactive: 786-0 18.1 µM | ACHN 19.5 µM | HOP-62 17.2 µM | K562 15.6 µM | KM-20L2 15.7 µM | LXFL 529 12.9 µM | NCI-H23 15.7 µM | OVCAR-4 16.2 µM | OVCAR-8 30 µM | RXF 393 5.69 µM | SNB-19 22.6 µM | SW-620 20.6 µM | U-251 18.6 µM

COC(=O)C1CCC[C@H]2C(CO)=C(C)C(=O)[C@@H]12 (some centres undefined)
inactive: 786-0 > 100 µM | ACHN > 100 µM | HOP-62 > 100 µM | K562 > 100 µM | KM-20L2 > 100 µM | LXFL 529 > 100 µM | NCI-H23 > 100 µM | NCI-H522 > 100 µM | OVCAR-4 > 100 µM | OVCAR-8 > 100 µM | RXF 393 > 100 µM | SNB-19 > 100 µM | SW-620 > 100 µM | TK-10 > 100 µM | U-251 > 100 µM

CCOC(=O)NC(=O)c1cn(CCSCCOC(=O)NCCCCCCNC(=O)OCCSCCn2cc(C(=O)NC(=O)OCC)c(=O)n(C)c2=O)c(=O)n(C)c1=O
inactive: 786-0 30.3 µM | ACHN > 100 µM | HOP-62 51.5 µM | KM-20L2 39.7 µM | LOX IMVI 32.1 µM | LXFL 529 5.36 µM | NCI-H23 19.9 µM | OVCAR-8 20.1 µM | RXF 393 27.6 µM | SNB-19 34 µM | SW-620 29.8 µM | TK-10 44.3 µM | U-251 16.8 µM

CCOC(=O)C1=C(C)N(NC(N)=O)C(C)(O)C12CCOC2=O (centres undefined)
inactive: 786-0 > 100 µM | ACHN > 100 µM | HOP-62 > 100 µM | K562 > 100 µM | KM-20L2 > 100 µM | LOX IMVI > 100 µM | LXFL 529 > 100 µM | NCI-H522 > 100 µM | OVCAR-4 > 100 µM | OVCAR-8 > 100 µM | SNB-19 > 100 µM | SW-620 > 100 µM | U-251 > 100 µM

Cc1cc(O)c2c(c1)C(=O)c1cc(O)cc(O)c1C2=O [EMODIN]
inactive: ACHN 18.6 µM | HOP-62 14.4 µM | KM-20L2 40.8 µM | LOX IMVI 15.9 µM | LXFL 529 24.4 µM | NCI-H23 14.9 µM | NCI-H522 27.4 µM | OVCAR-4 30.6 µM | RXF 393 41 µM | SNB-19 31.8 µM | SW-620 27.6 µM | TK-10 39.4 µM | U-251 24.7 µM

O=C(CC(=O)n1nc(-c2ccccc2)c(/N=N/c2ccc(Cl)cc2)c1-c1ccccc1)Nc1ccc(Cl)cc1
inactive: 786-0 > 43.3 µM | ACHN > 100 µM | HOP-62 > 100 µM | K562 > 41.7 µM | KM-20L2 > 76 µM | LOX IMVI > 41.5 µM | LXFL 529 > 60 µM | NCI-H23 > 100 µM | NCI-H522 > 100 µM | OVCAR-4 > 100 µM | OVCAR-8 63.4 µM | SNB-19 > 100 µM | SW-620 > 44.1 µM | TK-10 > 61.1 µM | U-251 > 100 µM

O=C(N[C@@H](c1ccccc1)[C@@H](O)C(=O)OCc1ccc2c(c1)OCO2)c1ccccc1
inactive: HOP-62 > 100 µM | K562 > 100 µM | KM-20L2 > 100 µM | LOX IMVI > 100 µM | NCI-H23 > 100 µM | NCI-H522 > 100 µM | NCI/ADR-RES > 42.1 µM | OVCAR-4 > 100 µM | OVCAR-8 > 100 µM | RXF 393 52.8 µM | SNB-19 > 100 µM | SW-620 > 100 µM | U-251 > 100 µM

O=c1nc(-c2ccccc2)scc1-c1ccccc1
inactive: 786-0 78.3 µM | ACHN > 100 µM | HOP-62 44.7 µM | K562 > 100 µM | KM-20L2 > 100 µM | LXFL 529 > 100 µM | NCI-H23 > 100 µM | NCI-H522 21 µM | OVCAR-4 > 100 µM | OVCAR-8 > 100 µM | RXF 393 74.5 µM | SNB-19 59.7 µM | SW-620 > 100 µM | TK-10 > 100 µM | U-251 98.6 µM

CCCCCCCCOC(CO)CO
inactive: 786-0 > 100 µM | ACHN > 100 µM | HOP-62 > 100 µM | K562 > 100 µM | KM-20L2 > 100 µM | LOX IMVI > 100 µM | LXFL 529 > 100 µM | NCI-H23 > 100 µM | OVCAR-4 > 100 µM | OVCAR-8 > 100 µM | SNB-19 > 100 µM | SW-620 > 100 µM | TK-10 > 100 µM | U-251 > 100 µM

CC1C(=O)CC(c2cccs2)N(N=O)C1c1cccs1 (centres undefined)
inactive: HOP-62 97.7 µM | K562 15.8 µM | KM-20L2 71 µM | LOX IMVI 56.5 µM | NCI-H23 40.6 µM | NCI-H522 28.2 µM | NCI/ADR-RES 26.6 µM | OVCAR-4 50.2 µM | OVCAR-8 > 42 µM | RXF 393 24.9 µM | SNB-19 > 85.3 µM | SW-620 54.6 µM | U-251 68.2 µM

CCCCCCc1cn([C@H]2C[C@H](O)[C@@H](CO)O2)c(=O)[nH]c1=O
inactive: HOP-62 > 10 µM | K562 > 100 µM | KM-20L2 > 100 µM | LOX IMVI > 100 µM | NCI-H23 > 100 µM | NCI-H522 > 100 µM | NCI/ADR-RES > 100 µM | OVCAR-4 > 100 µM | OVCAR-8 > 100 µM | RXF 393 > 100 µM | SNB-19 > 100 µM | SW-620 > 100 µM | U-251 > 100 µM
